The text below walks through data of paper PMC11385693, “Synthesis of ferrocenyl benzimidazole derivatives as novel anti-Toxoplasma gondii agents” (New Journal of Chemistry, 2024).

Values joined by “and” are separate entries in the source; they are usually repeats but may differ in a detail not shown here. Equal entries are not always repeated.

Data set [1] in a line: Turbidimetric solubility assay. The protocol: A single phosphate buffered saline (PBS) tablet (Sigma Aldrich) was dissolved in 200 mL of distilled water (dH2O) (25 °C) to obtain a PBS solution with 0.01 M phosphate buffer, 0.14 M NaCl and 0.003 M KCl.
Stock solutions of the compounds to be tested were prepared in DMSO at a concentration of 10 mM and filtered through syringe filters. Serial dilution of the stock solutions with DMSO was then carried out in a preparatory (prep) 96-well plate giving concentrations between 0.00 and 10.0 mM (0.00, 0.25, 0.50, 1.0, 2.0, 4.0, 8.0 and 10 mM). The solutions were then further diluted into 96-well assay plates containing DMSO, PBS or HEPES buffer by pipetting 4.00 μL of solution from the prep plate to the Assay plate containing 196 μL of DMSO or buffer, giving final concentrations between 0.00 and 200 μM (0.00, 5.00, 10.0, 20.0, 40.0, 80.0, 160 and 200 μM). The assay plates were incubated at 25.0 or 37.0 °C for two hours before their UV-vis absorbance was read at 620 nm with a SPECTROstar Nano microplate reader spectrophotometer. Blank readings were used to gain corrected readings by subtracting them from obtained absorbances for each compound concentration.

Data set [2] can be described thus: Cyclic voltammetry. It is filed as physicochemical. The text has this:
Ferrocene is known to undergo reversible oxidation and reduction, cycling between its 3^+ ferrocenium and the 2^+ ferrocene (Fc) states.[49,50] This redox behaviour leads to the generation of reactive oxygen species (ROS) through Fenton like reactions, which can in turn lead to parasite death.[51–53] Cyclic voltammetry was used to determine if the synthesised ferrocenyl derivatives had the potential to have an impact on the redox status of the parasite cells. Two different scan rates (25 and 90 mV s^−1) were used to ensure the reliability of the results, compared to ferrocene alone.

In data set [3] the test system is RhΔKu80:mNeonGreen strain of T. gondii. The data set can be described thus: microbe, parasite or virus in culture. Format: cell-based, Toxoplasma gondii. The note with it: T. gondii ΔKu80:mNeon in HFFs, 4 days, highest concentration 100 μM; NA = not active at the maximum tested concentration; three biological replicates in triplicate; read-out: EC50. As for the experimental part:
Growth inhibition assays were carried out using the RhΔKu80:mNeonGreen strain of T. gondii, which expresses the mNeonGreen fluorescent protein.[56] Parasite growth inhibition was determined by measuring the fluorescence emission of parasite growth in increasing concentrations of compounds of interest.
T. gondii ΔKu80:mNeon tachyzoites were grown in human foreskin fibroblasts (HFFs) with Dulbecco's modified Eagle's medium (DMEM) supplemented with 3% heat inactivated foetal bovine serum (D3) as the culturing medium. Cells and parasites were maintained at 37 °C and 5% carbon dioxide (CO2).
EC50s were calculated as previously described.[56] Briefly, T. gondii ΔKu80:mNeon parasites were counted by haemocytometer and diluted to 25 000 parasites per mL in 40 mL of D3 media, to give an infection of 5000 parasites per well. The media from a black clear bottomed 96 well plate containing HFFs was then aspirated. 200 μL of uninfected D3 media was added to the top and bottom rows of wells (A and H) to serve as blanks. 200 μL of T. gondii containing D3 media was then added to the remaining wells. The parasites were allowed 2 hours to invade host cells, after which test compounds were added.
The media from the infected 96 well plates was then aspirated and 100 μL of D3 media added to each well, excluding column 12. The first 4 wells of column 12 were filled with 300 μL of drug supplemented D3 media, while the next 4 wells were filled with 300 μL of D3 media supplemented with a different drug. The drug supplemented D3 media was then serially diluted 1 : 3 across the plate, stopping at column 2 and disposing of the media, leaving all wells with 100 μL of media. Finally, the plates were closed and incubated at 37 °C with 5% CO2 for 4 days. After 4 days the fluorescence of each well on the plates was read at 594 nm emission using a PHERAstar FS microplate reader. Graphpad Prism 9 software was used to plot dose–response and determine inhibition of parasite growth.

For data set [4], the system named is T. gondii parasites. The experiment in a line: Determination of ROS formation by FACS (CellROX deep red). It is filed as cell-based, Toxoplasma gondii. The note with it: 66 μM, 18 hours, compared with untreated parasites. As for the experimental part: Once it had been established that two of the synthesised ferrocenyl benzimidazole derivatives were biologically active, their potential mode of action was explored. Given the presence of the ferrocenyl moiety, and the cyclic voltammetry results, it was of interest to investigate whether the compounds induce ROS, which may provide an explanation for their anti-parasitic activity. Thus, cells heavily infected with parasites were incubated with target compounds for 18 hours, before isolating the parasites and staining them with CellRox deep red reagent. CellRox is an oxidation sensitive dye which is non-fluorescent in its reduced state but fluoresces bright red at 665 nm upon being oxidised by ROS. FACS was then used to quantify CellROX parasite florescence.[56] Parasites were incubated with ferrocene carboxylic acid (FcCOOH), and untreated parasites were used as controls.
6 cm dishes of host cells heavily infected with T. gondii were untreated or treated with 66 μM (second highest concentration used in growth inhibition assays) of test compounds for 18 hours. The dishes were then scratched and syringed, before filtering the solution into 10 mL falcon tubes to remove cell debris. The tubes were spun down for 10 minutes at 1500 rpm. The media was then removed from the tubes, and the pellet resuspended in 200 μL of PBS buffer. For each drug, 100 μL of the resuspended pellet was then placed into 2 FACS tubes, one which would then be stained with CellROX dye, and the other 100 μL of PBS added to act as an unstained control. A 1 : 125 dilution of CellROX stock solution was performed, and 100 μL of this solution added to the FACS tubes needing staining. Stained tubes were incubated at 37 °C for at least 15 min before analysis on a BD Celesta flow cytometer. Data was obtained using FACSDiva software with parasites being gated on forward scatter, side scatter and green fluorescence. FlowJo v10 software was used to plot the geometric mean of CellRox fluorescence from at least 5000 parasites on the Cy7 channel.
(In flow cytometry, cells or beads pass a laser one at a time.)

Usually EC50 stands for the concentration giving half of the maximal effect. `O=C(NCCn1cnc2cccnc21)[c-]1cccc1.[Fe+2].c1cc[cH-]c1` [Compound 17]: the Solubility range in data set [1] (HEPES (pH 7.0), 25 °C) was 20-40 µM and 7-15 µg/mL; in data set [1] (HEPES (pH 7.0), 37 °C) it was 0-5 µM and 0–2 µg/mL; in data set [1] (PBS (pH7.4), 25 °C), 0-5 µM and 0-2 µg/mL; in data set [1] (PBS (pH7.4), 37 °C), 5-10 µM and 2-4 µg/mL. Moreover, in data set [1] (HEPES (pH 7.0), 37 °C), the Solubility class result is on record as “poor (solubility <10 μg mL^−1 are considered to have poor solubility)”. Moreover, the “E 1/2” value in data set [2] (Run1, scan rate 25 mV s^−1) was found to be 620 mV; in data set [2] (Run2, scan rate 90 mV s^−1) it was 618 mV. Further, the ΔEp in data set [2] (Run1, scan rate 25 mV s^−1) came out at 79 mV; in data set [2] (Run2, scan rate 90 mV s^−1), 68 mV. Moreover, in data set [3], the EC50 was 17.5 µM. In addition, in data set [4], the “ROS formation in treated parasites (CellRox red fluorescence)” value is reported as “triggered the formation of ROS”.
